{
  "source": "paper PMC5491906",
  "about": "“Cellular uptake and anti-tumor activity of gemcitabine conjugated with new amphiphilic cell penetrating peptides” (EXCLI Journal, 2017)",
  "key": {"A549 cells [1]": {"test_system": "A549 cells", "test": "Antitumor activity of free gemcitabine and Gem-CPP conjugates by MTT test", "settings": "for cell viability: 72 h incubation, 10 % FBS; for cell viability / cytotoxicity in comparison to the free drug: 72 h, 15 and 25 µM where stated", "description": "(§1) A549 lung carcinoma cell line was obtained from the Pasteur Institute (Iran). Cells were maintained in RPMI 1640 medium supplemented with 10 % FBS, 100 units/ml penicillin, and 100 μg/ml streptomycin and grown at 37 °C in a 5 % CO2 humidified atmosphere.\n(§2) A549 cells were seeded into 96-well plates at a density of 1.5 × 10^4 cells/well and pre-incubated for 24 h. The next day, different concentrations of peptides were added to the culture medium. Cells were incubated at 37 °C for 72 h. The medium was removed and the wells were washed with PBS. The MTT assay was performed by introducing 50 μl of 2 mg/ml MTT to each well for 4 h. The culture media aspirated and then resulting formazan crystals were dissolved in DMSO and the absorbance of individual wells was obtained at 570 nm. Untreated cells were defined as 100 % viable.\nThe antitumor activity of free gemcitabine and its conjugates with CPPs (Gem-CPP) was investigated using MTT test after incubation for 72 h. The activity of drug-peptide conjugates i.e. Gem-R5W3R4, Gem-[RW]6, Gem-[RW]5, Gem-[RW]4 and Gem-[WR]3, was evaluated and compared with that of the free drug (Figure 6(Fig. 6)).\nFigure 6 Toxicity of Gem-R5W3R4 (A), Gem-[RW]6 (B), Gem-[RW5] (C), Gem-[RW]4 (D), Gem-[RW]3 (E) and Gem to A549 cells. The cells were incubated for 3 days in 10 % FBS with or without peptides and analyzed for proliferation by MTT assay."}, "A549 cells [2]": {"test_system": "A549 cells", "test": "Flow cytometry of cellular uptake of FITC-labeled peptides", "format": "cell-based", "settings": "FITC-labeled peptide, 1.5 h at 37 °C, trypsin treatment to remove surface-bound peptide, FACSCalibur", "description": "A549 cells were seeded with RMPI 1640 medium in 6-well plates (3×10^5 cells/well) 24 h prior to the experiment. After 24 h, the medium was removed and washed with PBS. Then FITC-labeled peptide was added to the cells. The plates were incubated for 1.5 h at 37 °C. After that, the medium containing the peptide was removed. The cells were washed three times with PBS and detached with 0.25 % trypsin/EDTA (0.53 mM) for 5 min. To each well, 2 ml of the medium was added and centrifuged for 4 min. Cells were washed twice with PBS and finally were re-suspended in flow cytometry buffer and analyzed by FACSCalibur (Becton Dickinson, San Jose, CA, USA).\nFlow cytometry was used to determine the relative amounts of internalized peptide after 1.5 h incubation at 37 °C. After the incubation, cells were treated with trypsin to remove the cell surface-bound peptides. […] The percentage of cell fluorescence was increased with increasing peptides concentration. This effect was nearly linear for the tested concentrations. There was an increase in fluorescence intensity of cells treated with peptides of higher amino acid content.\nFigure 5 Cellular uptake of FITC-labeled peptides in live A549 cells after incubation. The uptake was measured as the relative fraction of positive cells (%) from flow cytometry analysis of all living cells positive for the fluorophore."}, "A549 cells [3]": {"test_system": "A549 cells", "test": "Cytotoxicity of blank CPPs by MTT assay", "settings": "72 h peptide exposure", "description": "as §1, §2"}, "A549 cells [4]": {"test_system": "A549 cells", "test": "Fluorescent microscopy of uptake and intracellular localization of FITC-labeled peptides", "format": "cell-based", "settings": "FITC-labeled peptide, 25 µM, 1.5 h at 37 °C, live A549 cells, fluorescence read-out", "description": "The cellular uptake of the FITC-labeled peptide was examined in A549 cell line. A549 cells were seeded with RPMI 1640 medium on coverslips in 6-well plates and allowed to adhere overnight. Then the medium was removed and washed with PBS. The cells were treated with FITC-labeled peptide for 1.5 h at 37 °C. After incubation, the media containing the compound were removed and the cells were washed with PBS three times. Coverslips were placed on a microscope slide (Olympus IX81 fluorescence microscope, Olympus Optical Co., Ltd., Tokyo, Japan).\nThe uptake and intracellular localization of FITC-labeled peptides were examined by fluorescent microscopy. […] The uptake of all peptides was examined at the concentration of 25 µM.\nFigure 4 Fluorescence microscopy, visualization of FITC-labeled, R5W3R4 (A, B), [RW]6 (C, D), [RW]5 (E, F), [RW]4 (G, H), and [RW]3 (I, J) in A459 cells. The top photos show fluorescence microscopy and the bottom bright field of A459 cells. Live cells were treated with 25 µm of peptides for 1.5 h at 37 °C. Control cells were incubated in RPMI medium without the peptides."}},
  "note": "Where a SMILES comes first, the peptide text is derived from it. Where no end group is shown, it is not given here. The star is where a group is joined. X1 = Nc1ccn([C@@H]2O[C@H](COC(=O)CCC(=O)*)[C@@H](O)C2(F)F)c(=O)n1",
  "data": [
    {"compound": "Nc1ccn([C@@H]2O[C@H](CO)[C@@H](O)C2(F)F)c(=O)n1", "note": "[Free drug, Gemcitabine]", "values": [
      {"measurement": "cell viability", "setting": "A549 cells [1]; 15 µM", "value": 20, "unit": "%"},
      {"measurement": "cell viability", "setting": "A549 cells [1]; 25 µM", "value": 20, "unit": "%"}
    ]},
    {"compound": "N=C(N)NCCC[C@H](NC(=O)[C@H](CCCNC(=N)N)NC(=O)[C@H](CCCNC(=N)N)NC(=O)[C@H](CCCNC(=N)N)NC(=O)[C@H](Cc1c[nH]c2ccccc12)NC(=O)[C@H](Cc1c[nH]c2ccccc12)NC(=O)[C@H](Cc1c[nH]c2ccccc12)NC(=O)[C@H](CCCNC(=N)N)NC(=O)[C@H](CCCNC(=N)N)NC(=O)[C@H](CCCNC(=N)N)NC(=O)[C@H](CCCNC(=N)N)NC(=O)[C@H](CCCNC(=N)N)NC(=O)CCC(=O)OC[C@H]1O[C@@H](n2ccc(N)nc2=O)C(F)(F)[C@@H]1O)C(N)=O", "note": "[Gem-R5W3R4] (X1-RRRRRWWWRRRR-NH2)", "values": [
      {"measurement": "cell viability / cytotoxicity in comparison to the free drug", "setting": "A549 cells [1]", "value": "decreased cell viability"}
    ]},
    {"compound": "N=C(N)NCCC[C@H](NC(=O)CCC(=O)OC[C@H]1O[C@@H](n2ccc(N)nc2=O)C(F)(F)[C@@H]1O)C(=O)N[C@@H](Cc1c[nH]c2ccccc12)C(=O)N[C@@H](CCCNC(=N)N)C(=O)N[C@@H](Cc1c[nH]c2ccccc12)C(=O)N[C@@H](CCCNC(=N)N)C(=O)N[C@@H](Cc1c[nH]c2ccccc12)C(=O)N[C@@H](CCCNC(=N)N)C(=O)N[C@@H](Cc1c[nH]c2ccccc12)C(=O)N[C@@H](CCCNC(=N)N)C(=O)N[C@@H](Cc1c[nH]c2ccccc12)C(=O)N[C@@H](CCCNC(=N)N)C(=O)N[C@@H](Cc1c[nH]c2ccccc12)C(N)=O", "note": "[Gem-[RW]6]", "values": [
      {"measurement": "cell viability / cytotoxicity in comparison to the free drug", "setting": "A549 cells [1]", "value": "decreased cell viability"}
    ]},
    {"compound": "RRRRRWWWRRRR-NH2 [R5W3R4]", "values": [
      {"measurement": "intracellular fluorescence, relative fraction of positive cells (flow cytometry)", "setting": "A549 cells [2]", "value": "maximum intracellular fluorescence"},
      {"measurement": "cell toxicity value", "setting": "A549 cells [3]; 25 µM", "value": 9, "unit": "%"},
      {"measurement": "cell death", "setting": "A549 cells [3]; 50 µM", "value": 28, "unit": "%"},
      {"measurement": "intracellular distribution (fluorescent microscopy)", "setting": "A549 cells [4]", "value": "homogeneous staining throughout the intracellular space"}
    ]}
  ]
}
